Converted amounts (≈) assume the structure as drawn. Where a name gives a salt, the structure may show the parent alone. Read-outs that look alike come from different tables or passages of the source.
How the values were obtained:
Assay in all cases: MIC, dilution in liquid medium
Type in all cases: cell-based
[1] = system: Escherichia Coli sensitive Tetracycline ATCC 9 637
Protocol: (§1) The method used was a dilution of a liquid medium where a series of tubes received the same quantity of a sterile nutritive media and increasing doses of the test compounds were placed therein. Then each tube was seeded with a bacterial strain and was incubated for 24 to 48 hours at 37° C. in an oven. The increasing inhibition was determined by transillulumination to determine the minimum inhibiting concentration (MIC in μg/ml) and the results are reported in the following Tables.

[2] = system: Providencia Du 48
Protocol: as §1

[3] = system: Bacillus subtilis ATCC 6 633
Protocol: as §1

[4] = system: Salmonella typhimurium 420; conditions: Salmonella enterica
Protocol: as §1

[5] = system: Klebsiella pneumoniae 2 536 Resistant Gentamycine
Protocol: as §1

[6] = system: Klebsiella pneumoniae Exp. 52 145
Protocol: as §1

[7] = system: Staphylococcus aureus exp.n°54 146
Protocol: as §1

[8] = system: Escherichia Coli Exp. TO26 B6
Protocol: as §1

[9] = system: Staphylococcus aureus UC 1 128 Pen-resistant
Protocol: as §1

[10] = system: Proteus mirabilis (indol-) A 235
Protocol: as §1

[11] = system: Serratia Resistant Gentamycine 2 532
Protocol: as §1

[12] = system: Escherichia Coli Resistant Gentamycine, Tobramycine R 55 123 D
Protocol: as §1

[13] = system: Staphylococcus aureus ATCC 6 538 Pen Sensitive
Protocol: as §1

[14] = system: Streptococcus pyogenes A 561
Protocol: as §1

[15] = system: Enterobacter cloacae 681
Protocol: as §1

[16] = system: Escherichia Coli Resistant Tetracycline ATCC 11 303
Protocol: as §1

[17] = system: Pseudomonas 3935 Exp.Sensible Gentamycine
Protocol: as §1

Row | SMILES | MIC ([1]; ATCC9, 24 h) | MIC ([1]; ATCC9, 48 h) | MIC ([3]; ATCC6, 48 h) | MIC ([4]; 24 h) | MIC ([4]; 48 h) | MIC ([5]; 24 h) | MIC ([7]; 24 h) | MIC ([7]; 48 h) | MIC ([8]; 24 h) | MIC ([8]; 48 h) | MIC ([9]; UC1, 24 h) | MIC ([9]; UC1, 48 h) | MIC ([10]; 24 h) | MIC ([10]; 48 h) | MIC ([11]; 24 h) | MIC ([11]; 48 h) | MIC ([12]; 24 h) | MIC ([12]; 48 h) | MIC ([13]; ATCC6, 24 h) | MIC ([13]; ATCC6, 48 h) | other results
1 | Cn1nnnc1SCC1=C(C(=O)O)N2C(=O)C(NC(=O)/C(=N\OCCSC(=N)N)c3csc(N)n3)C2SC1 (stereo not drawn) [Example 4, Internal salt of the syn isomer of 3-[(1-methyl-1H-tetrazol-5-yl)-thiomethyl]-7-[2-(2-amino-4-thiazolyl)-2-(2-aminoiminomethylthioethoxyimino)-acetamido]-ceph-3-eme-4-carboxylic acid] | 2 µg/mL | 2 µg/mL | 2 µg/mL | 2 µg/mL | 2 µg/mL | 5 µg/mL | 2 µg/mL | 2 µg/mL | 1 µg/mL | 1 µg/mL | 2 µg/mL | 2 µg/mL | 0.2 µg/mL | 0.5 µg/mL | 1 µg/mL | 1 µg/mL | 1 µg/mL | 1 µg/mL | 1 µg/mL | 2 µg/mL | MIC ([2]; DU48, 24 h): 5 µg/mL; MIC ([2]; DU48, 48 h, read-out: MIC): 10 µg/mL; MIC ([3]; ATCC6, 24 h, read-out: MIC): 0.5 µg/mL; MIC ([5]; 48 h): 5 µg/mL; MIC ([6]; EXP.52145, 24 h): 1 µg/mL; MIC ([6]; EXP.52145, 48 h): 1 µg/mL; MIC ([14]; A561, 24 h): 0.05 µg/mL; MIC ([14]; A561, 48 h): 0.05 µg/mL; MIC ([15]; Enterobacter cloacae, 681, 24 h): 3 µg/mL; MIC ([15]; Enterobacter cloacae, 681, 48 h): 3 µg/mL; MIC ([16]; ATCC11, 24 h): 0.2 µg/mL; MIC ([16]; ATCC11, 48 h): 0.2 µg/mL; MIC ([17]; 24 h): 10 µg/mL; MIC ([17]; 48 h): 20 µg/mL
2 | CC(=O)OCC1=C(C(=O)O)N2C(=O)C(NC(=O)/C(=N\OCCSC(=N)NN)c3csc(N)n3)C2SC1 (stereo not drawn) [Example 8, Internal salt of syn isomer of 3-acetoxymethyl-7-[2-(2-amino-4-thiazolyl)-2-(2-iminohydrazinomethylthioethoxyimino)acetamido]-ceph-3-eme-4-carboxylic acid] | 2 µg/mL | 2 µg/mL | 3 µg/mL | 1 µg/mL | 2 µg/mL | 5 µg/mL | 1 µg/mL | 2 µg/mL | 1 µg/mL | 1 µg/mL | 2 µg/mL | 2 µg/mL | 0.2 µg/mL | 0.2 µg/mL | 1 µg/mL | 2 µg/mL | 1 µg/mL | 1 µg/mL | 1 µg/mL | 2 µg/mL | MIC ([3]; ATCC6, 24 h): 1 µg/mL; MIC ([5]; 48 h, read-out: MIC): 10 µg/mL; MIC ([6]; EXP.52145, 24 h): 1 µg/mL; MIC ([6]; EXP.52145, 48 h): 1 µg/mL; MIC ([14]; A561, 24 h): 0.02 µg/mL; MIC ([14]; A561, 48 h): 0.05 µg/mL; MIC ([16]; ATCC11, 24 h): 0.5 µg/mL; MIC ([16]; ATCC11, 48 h): 0.5 µg/mL
3 | CC(=O)OCC1=C(C(=O)O)N2C(=O)C(NC(=O)/C(=N\OCCSC#N)c3csc(N)n3)C2SC1 (stereo not drawn) [Example 7, Syn isomer of 3-acetoxymethyl-7-[2-(2-amino-4-thiazolyl)-2-(2-thiocyanatoethoxyimino)-acetamido]-ceph-3-eme-4-carboxylic acid] | 5 µg/mL (≈ 9.5 µM) | 5 µg/mL (≈ 9.5 µM) | 2 µg/mL (≈ 3.8 µM) | 1 µg/mL (≈ 1.9 µM) | 3 µg/mL (≈ 5.7 µM) | 5 µg/mL (≈ 9.5 µM) | 1 µg/mL (≈ 1.9 µM) | 2 µg/mL (≈ 3.8 µM) | 2 µg/mL (≈ 3.8 µM) | 2 µg/mL (≈ 3.8 µM) | 1 µg/mL (≈ 1.9 µM) | 1 µg/mL (≈ 1.9 µM) | 0.2 µg/mL (≈ 0.38 µM) | 0.5 µg/mL (≈ 0.95 µM) | 2 µg/mL (≈ 3.8 µM) | 3 µg/mL (≈ 5.7 µM) | 1 µg/mL (≈ 1.9 µM) | 1 µg/mL (≈ 1.9 µM) | 1 µg/mL (≈ 1.9 µM) | 1 µg/mL (≈ 1.9 µM) | MIC ([2]; DU48, 24 h, read-out: MIC): 10 µg/mL (≈ 19 µM); MIC ([2]; DU48, 48 h, read-out: MIC): 10 µg/mL (≈ 19 µM); MIC ([3]; ATCC6, 24 h): 1 µg/mL (≈ 1.9 µM); MIC ([5]; 48 h): 5 µg/mL (≈ 9.5 µM); MIC ([6]; EXP.52145, 24 h, read-out: MIC): 0.5 µg/mL (≈ 0.95 µM); MIC ([6]; EXP.52145, 48 h, read-out: MIC): 0.5 µg/mL (≈ 0.95 µM); MIC ([14]; A561, 24 h): 0.02 µg/mL (≈ 0.038 µM); MIC ([14]; A561, 48 h): 0.02 µg/mL (≈ 0.038 µM); MIC ([16]; ATCC11, 24 h): 0.2 µg/mL (≈ 0.38 µM); MIC ([16]; ATCC11, 48 h): 0.2 µg/mL (≈ 0.38 µM)

— patent publication US4426519A, “7-(2-Amino-4-thiazolyl)-acetamido cephalosporanic acids” (Roussel Uclaf, priority 1979, dated 1984)
